Source: patent US12193444B2, “Insecticidal composition and use thereof” (ADAMA MAKHTESHIM LTD., priority 2018, dated 2025)
Structures can show the parent of a compound that is named as a salt.

Key:
[1] = cited from earlier work
[2] = Accelerated storage stability: degradation of active ingredients after 14 days at 54° C.; format: physicochemical
Description: In some embodiments, the percentage of degradation is calculated based on the percentage of cartap and/or emamectin by weight based on the total weight of the stable composition before and after storage. […]
In addition, two different levels of water content were measured, content (a) less than 0.2% and b) from more than 0.3% to less than 0.5%.
In example 1, the concentrations of the cartap and emamectin were measured after 14 days storage at 54° C.
For GR composition, it was observed that the failed batches are associated with the bulging of the pouch under accelerated storage. For study of accelerated storage at 54° C. for 14 days, the sample is kept in a sealed tri-laminated aluminum pouch and after storage, the visual observations are done to observe the pouch bulging, if any. Comparative rating was done, where more number of stars denotes more bulging. From table 5, it is clear that, for the storage stability samples of pH 5.1, 4.7, 4.1 and 3.5 (for both the processes) samples with water content of less or equal to 0.2% water content by weight based on the total weight of the stable composition, have not shown any bulging.

[3] = pH (1% Aq.) 3.5, water content <0.2 % w/w
[4] = pH (1% Aq.) 3.5, water content >0.3 to <0.5 % w/w
[5] = pH (1% Aq.) 4.1, water content <0.2 % w/w
[6] = pH (1% Aq.) 4.1, water content >0.3 to <0.5 % w/w
[7] = pH (1% Aq.) 4.7, water content <0.2 % w/w
[8] = pH (1% Aq.) 4.7, water content >0.3 to <0.5 % w/w
[9] = pH (1% Aq.) 5.1, water content <0.2 % w/w
[10] = pH (1% Aq.) 5.1, water content >0.3 to <0.5 % w/w
[11] = pH (1% Aq.) 5.5, water content <0.2 % w/w
[12] = pH (1% Aq.) 5.5, water content >0.3 to <0.5 % w/w
[13] = pH (1% Aq.) 5.8, water content <0.2 % w/w
[14] = pH (1% Aq.) 5.8, water content >0.3 to <0.5 % w/w

In the case of “(4″R)-5-O-demethyl-4″-deoxy-4″-(methylamino)avermectin [Emamectin]”, the decomposition of emamectin ([1]; highly unstable, decomposes rapidly) is listed as “about 25%”, the stability to hydrolysis ([1]; pH 5, 6, 7 and 8 (25° C.)) is listed as “stable to hydrolysis” and the “% Emamectin degradation (14 Days Storage, 54° C.) Process 1” value [2, 3] is listed as 1.9%. For the same molecule, the “% Emamectin degradation (14 Days Storage, 54° C.) Process 2” value [2, 3] was 4.49%, the “% Emamectin degradation (14 Days Storage, 54° C.) Process 1” value [2, 4] was 13% and the “% Emamectin degradation (14 Days Storage, 54° C.) Process 2” value [2, 4] was 13.97%. The “% Emamectin degradation (14 Days Storage, 54° C.) Process 1” value [2, 5] was 0.95%, the “% Emamectin degradation (14 Days Storage, 54° C.) Process 2” value [2, 5] was 2.3% and the “% Emamectin degradation (14 Days Storage, 54° C.) Process 1” value [2, 6] was 14.45%. For the same molecule, the “% Emamectin degradation (14 Days Storage, 54° C.) Process 2” value [2, 6] was 5.02%, the “% Emamectin degradation (14 Days Storage, 54° C.) Process 1” value [2, 7] was 6.14% and the “% Emamectin degradation (14 Days Storage, 54° C.) Process 2” value [2, 7] was 2.38%. For the same molecule, the “% Emamectin degradation (14 Days Storage, 54° C.) Process 1” value [2, 8] was 17.1%, the “% Emamectin degradation (14 Days Storage, 54° C.) Process 2” value [2, 8] was 7.31% and the “% Emamectin degradation (14 Days Storage, 54° C.) Process 1” value [2, 9] was 7.98%. For the same molecule, the “% Emamectin degradation (14 Days Storage, 54° C.) Process 2” value [2, 9] was 4.49%, the “% Emamectin degradation (14 Days Storage, 54° C.) Process 1” value [2, 10] was 12.12% and the “% Emamectin degradation (14 Days Storage, 54° C.) Process 2” value [2, 10] was 27.2%. The “% Emamectin degradation (14 Days Storage, 54° C.) Process 1” value [2, 11] was 8.33%, the “% Emamectin degradation (14 Days Storage, 54° C.) Process 2” value [2, 11] was 6.89% and the “% Emamectin degradation (14 Days Storage, 54° C.) Process 1” value [2, 12] was 40.96%. The “% Emamectin degradation (14 Days Storage, 54° C.) Process 2” value [2, 12] was 24.63%, the “% Emamectin degradation (14 Days Storage, 54° C.) Process 1” value [2, 13] was 16.7% and the “% Emamectin degradation (14 Days Storage, 54° C.) Process 2” value [2, 13] was 20.2%. The “% Emamectin degradation (14 Days Storage, 54° C.) Process 1” value [2, 14] was 70.74% and the “% Emamectin degradation (14 Days Storage, 54° C.) Process 2” value [2, 14] was 26.59%.
With `CN(C)C(CSC(N)=O)CSC(N)=O` [Cartap Hydrochloride, S,S′-(2-dimethylaminotrimethylene) bis(thiocarbamate)] the “% Cartap Hydrochloride degradation (14 days storage, 54° C.) Process 1” value [2, 3] was 0%, the “% Cartap Hydrochloride degradation (14 days storage, 54° C.) Process 2” value [2, 3] was 2.27% and the “% Cartap Hydrochloride degradation (14 days storage, 54° C.) Process 1” value [2, 4] was 0%. The “% Cartap Hydrochloride degradation (14 days storage, 54° C.) Process 2” value [2, 4] was 2.80%, the “% Cartap Hydrochloride degradation (14 days storage, 54° C.) Process 2” value [2, 5] was 0.23% and the “% Cartap Hydrochloride degradation (14 days storage, 54° C.) Process 2” value [2, 6] was 2.80%. The “% Cartap Hydrochloride degradation (14 days storage, 54° C.) Process 1” value [2, 7] was 2.46%, the “% Cartap Hydrochloride degradation (14 days storage, 54° C.) Process 1” value [2, 8] was 3.63% and the “% Cartap Hydrochloride degradation (14 days storage, 54° C.) Process 1” value [2, 9] was 2.40%. The “% Cartap Hydrochloride degradation (14 days storage, 54° C.) Process 2” value [2, 9] was 1.67%, the “% Cartap Hydrochloride degradation (14 days storage, 54° C.) Process 1” value [2, 10] was 4.05% and the “% Cartap Hydrochloride degradation (14 days storage, 54° C.) Process 2” value [2, 10] was 1.22%. For the same molecule, the “% Cartap Hydrochloride degradation (14 days storage, 54° C.) Process 1” value [2, 11] was 0.00%, the “% Cartap Hydrochloride degradation (14 days storage, 54° C.) Process 1” value [2, 12] was 3.30% and the “% Cartap Hydrochloride degradation (14 days storage, 54° C.) Process 1” value [2, 13] was 3.16%. For the same molecule, the “% Cartap Hydrochloride degradation (14 days storage, 54° C.) Process 2” value [2, 13] was 1.09%, the “% Cartap Hydrochloride degradation (14 days storage, 54° C.) Process 1” value [2, 14] was 4.94% and the “% Cartap Hydrochloride degradation (14 days storage, 54° C.) Process 2” value [2, 14] was 6.48%.
